# Reference: the supplement of paper PMC4862054
# How the values were obtained:
# HCC1143 [1] = assay: normalised viability (% of control), CellTiter-Blue; higher = more viable cells (about 100 = DMSO control); conditions: incubation time: 72 h
# Procedure, shortened: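 Each value is normalised viability at a single listed concentration of the series. Breast cancer cell lines in 384-well plates were incubated 72 h with compound and read by CellTiter-Blue fluorescence at 560/590 nm, with vehicle set to 100 and a positive kill control to 0 on every plate.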
# CAL-85-1 = conditions: 72 h
# Experimental: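 Drug sensitivity and resistance testing (DSRT) of breast cancer cell lines in 384-well plates, 5 concentrations in 10-fold dilutions over a compound-specific 10,000-fold range. After 72 h, cytotoxicity was read by CellTox Green fluorescence and viability by CellTiter-Glo luminescence (multiplexed), normalised to DMSO and benzethonium chloride controls. EC50 is the inflection point of the fitted dose-response curve (bottom asymptote free, so it can be relative for partial curves) and is censored at the highest tested concentration. Rows with DSS 0 (no meaningful response) were excluded.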
# MFM-223 [2] = conditions: 72 h
# Procedure, shortened: (§1)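 Breast cancer cell lines in 20 µl suspension were seeded onto 384-well plates pre-loaded with compound dissolved in 5 µl medium, then incubated 72 h. For viability, 2.5 µl CellTiter-Blue was added for 2 h at 37 °C and fluorescence read at 560/590 nm. Each plate was normalised to vehicle and a positive kill control and checked by Z'-factor. EC50 comes from the fitted percent-inhibition dose-response curve, censored at the highest concentration; rows with zero drug sensitivity score were dropped.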
# CAL-120 [3] = conditions: 72 h
# Procedure, shortened: as §1
# HCC1143 [4] = conditions: 72 h
# Procedure, shortened: as §1
# MDA-MB-436 [5] = conditions: 72 h
# Procedure, shortened: as §1
# HCC1599 = conditions: 72 h
# Procedure, shortened: as §1
# BT-549 [6] = conditions: 72 h
# Procedure, shortened: as §1
# MFM-223 [7] = conditions: 72 h; remark: listed apart in the source
# Procedure, shortened: (§2)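 In this assay, breast cancer cell lines spent 72 h with compound at 5 concentrations in 10-fold steps over a compound-specific 10,000-fold range. The first readout was cell death by CellTox Green fluorescence, and the second was viability by CellTiter-Glo luminescence, each normalised per plate to 0.1 % DMSO and a positive kill control. EC50 came from the dose-response curves, censored at the top concentration.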
# BT-474 = conditions: 72 h
# Procedure, shortened: as §2
# CAL-120 [8] = conditions: 72 h; remark: listed apart in the source
# Procedure, shortened: as §2
# CAL-51 = conditions: 72 h
# Procedure, shortened: as §2
# MDA-MB-231 = conditions: 72 h
# Procedure, shortened: as §2
# HCC1143 [9] = conditions: 72 h; remark: listed apart in the source
# Procedure, shortened: as §2
# MDA-MB-436 [10] = conditions: 72 h; remark: listed apart in the source
# Procedure, shortened: as §2
# SK-BR-3 = conditions: 72 h
# Procedure, shortened: as §2
# BT-549 [11] = conditions: 72 h; remark: listed apart in the source
# Procedure, shortened: as §2
Compound,normalised viability (HCC1143 [1]; 9.9 nM),normalised viability (HCC1143 [1]; 100 nM),"EC50, CellTox Green (CAL-85-1)","EC50, CellTiter-Blue viability (MFM-223 [2])","EC50, CellTiter-Blue viability (CAL-120 [3])","EC50, CellTiter-Blue viability (HCC1143 [4])","EC50, CellTiter-Blue viability (MDA-MB-436 [5])","EC50, CellTiter-Blue viability (HCC1599)","EC50, CellTiter-Blue viability (BT-549 [6])","EC50, CellTiter-Glo (MFM-223 [7])","EC50, CellTiter-Glo (BT-474)","EC50, CellTiter-Glo (CAL-120 [8])","EC50, CellTiter-Glo (CAL-51)","EC50, CellTiter-Glo (MDA-MB-231)","EC50, CellTiter-Glo (HCC1143 [9])","EC50, CellTiter-Glo (MDA-MB-436 [10])","EC50, CellTiter-Glo (SK-BR-3)","EC50, CellTiter-Glo (BT-549 [11])",normalised viability (HCC1143 [1]; 1 nM),normalised viability (HCC1143 [1]; 10 nM)
Nc1nc(=O)c2c([nH]1)NCC(CNc1ccc(C(=O)N[C@@H](CCC(=O)O)C(=O)O)cc1)N2C=O (mixture of isomers) [Folinic acid],86.1%,–,–,–,–,–,–,–,–,–,–,–,–,–,–,–,–,–,–,–
Nc1ccccc1NC(=O)c1ccc(CNc2nccc(-c3cccnc3)n2)cc1 [Mocetinostat],–,81.5%,2.38 µM,4.2 µM,0.0757 µM,1.77 µM,2.02 µM,0.873 µM,2.62 µM,4.85 µM,2.92 µM,1.6 µM,1.65 µM,2.72 µM,2.25 µM,4.13 µM,1.66 µM,1.06 µM,–,–
CCC/C=C/C=C/C(=O)O[C@H]1/C(=C/C(=O)OC)C[C@H]2C[C@H]([C@@H](C)O)OC(=O)C[C@H](O)C[C@@H]3C[C@H](OC(C)=O)C(C)(C)[C@](O)(C[C@@H]4C/C(=C/C(=O)OC)C[C@H](/C=C/C(C)(C)[C@]1(O)O2)O4)O3 [Bryostatin 1],–,–,–,–,–,–,–,> 0.1 µM,–,–,–,–,0.00032 µM,–,–,–,0.0001 µM,> 0.1 µM,81.2%,–
Cc1c(CN2CCN(C(=O)[C@H](C)O)CC2)sc2c(N3CCOCC3)nc(-c3cnc(N)nc3)nc12 [GDC-0980],–,71.5%,3.2 µM,0.139 µM,0.181 µM,0.306 µM,0.783 µM,0.103 µM,0.386 µM,0.362 µM,0.375 µM,0.618 µM,0.423 µM,0.58 µM,0.591 µM,0.501 µM,0.13 µM,0.412 µM,–,–
CC/C(=C(\c1ccc(O)cc1)c1ccc(OCCN(C)C)cc1)c1ccccc1 [4-hydroxytamoxifen],–,–,7.77 µM,–,–,–,–,–,–,8.81 µM,–,3.01 µM,–,3.3 µM,–,7.82 µM,5.72 µM,1.9 µM,–,–
CO[C@@H](C(=O)N1Cc2[nH]nc(NC(=O)c3ccc(N4CCN(C)CC4)cc3)c2C1)c1ccccc1 [Danusertib],–,87.4%,–,–,0.335 µM,2.29 µM,1.48 µM,0.0381 µM,1.13 µM,0.0865 µM,0.912 µM,2.86 µM,0.78 µM,2.48 µM,8.38 µM,1.09 µM,–,0.882 µM,–,–
O=C(Nc1c[nH]nc1-c1nc2ccc(CN3CCOCC3)cc2[nH]1)NC1CC1 [AT9283],–,72.8%,–,0.886 µM,0.144 µM,0.604 µM,0.998 µM,2.12 µM,0.798 µM,0.191 µM,0.0747 µM,0.146 µM,0.00281 µM,0.125 µM,0.121 µM,–,0.933 µM,0.406 µM,–,–
O=C(NC[C@H](O)CO)c1ccncc1Nc1ccc(I)cc1F [Pimasertib],–,–,1.34 µM,–,–,–,–,–,–,1.95 µM,0.456 µM,0.356 µM,0.0462 µM,0.737 µM,–,8.47 µM,> 10 µM,–,–,–
C[C@]12C=CC(=O)C=C1CC[C@@H]1[C@@H]2[C@@H](O)C[C@@]2(C)[C@H]1CC[C@]2(O)C(=O)CO [Prednisolone],–,97.8%,–,–,–,–,–,–,–,–,–,0.0991 µM,–,–,–,–,–,–,–,–
Cc1cccc(-c2nn3c(c2-c2ccnc4ccc(C(N)=O)cc24)CCC3)n1,–,–,–,–,–,–,–,–,–,–,–,–,–,–,–,–,–,–,–,91%
Cc1c(Cn2c(C)nc3c(C(=O)O)cc(N4CCOCC4)cc32)cccc1C(F)(F)F,–,–,–,–,–,–,–,–,–,–,–,–,0.00816 µM,–,–,> 10 µM,–,0.0536 µM,–,–
CC[C@@]1(O)C(=O)OCc2c1cc1n(c2=O)Cc2cc3c(CN(C)C)c(O)ccc3nc2-1 [Topotecan],–,–,0.913 µM,–,0.0799 µM,0.652 µM,0.11 µM,0.102 µM,0.0771 µM,–,9.16 µM,4.82 µM,0.785 µM,7.05 µM,0.768 µM,0.378 µM,0.574 µM,1.19 µM,–,79.7%
CS(=O)(=O)N1CCN(Cc2cc3nc(-c4cccc5[nH]ncc45)nc(N4CCOCC4)c3s2)CC1 [GDC-0941],–,81.9%,–,0.721 µM,0.99 µM,0.882 µM,2.39 µM,0.709 µM,1.54 µM,–,–,–,–,–,–,–,–,–,–,–
O=S(=O)(c1cccc2cnccc12)N1CCCNCC1 [Fasudil],–,87.2%,–,1.69 µM,–,–,–,–,–,–,–,–,–,–,–,–,–,24.4 µM,–,–
